Reference: US20260248087A1, “GENERATING DOUBLED HAPLOID PLANTS” (Syngenta Crop Protection AG, priority 2023, published 2026)
Where “and” joins values, the source holds several entries; their conditions need not be identical. Identical values can stand only once.

Assays:
isolated embryos = test: Potting and transplant rate, co-treatment with benoxacor or dichlormid during colchicine treatment; assay type: in vivo, maize
Description: As used herein, the term “potted rate” or “potting rate” refers to the percent of germinated embryos successfully transferred to soil from total treated haploid embryos. The “potted rate” is used as an indication of plant health in monitoring the success of recovery and growth after treatment of haploids. As used herein, the term “transplant rate” refers to the survival of healthy plants after embryos were germinated and transferred to soil.
Benoxacor was applied to isolated embryos of 2 genoytypes, with 2 replicates at levels of 0, 20, 50, 100 or 200 mg/L during colchicine treatment in the doubling media. The co-treatments were incubated for durations of 24 or 48 hours. […] None of the 48-hour co-treatments performed better than the equivalent co-treatment at 24 hours (see Table 18).
Dichlormid was applied to isolated embryos from 2 genotypes, with 2 replicates at levels of 0, 20, 50, 100, 200 and 300 mg/L during colchicine treatment in the doubling media. The co-treatments were incubated for durations of 24 or 48 hours. […] The highest percent transplanted rates were 92% and 88% for co-treatments 100 mg/L and 50 mg/L both at 24 hours, respectively. None of the 48-hour co-treatments performed better than the equivalent co-treatment at 24 hours (see Table 19).

corn embryos = test: Uptake of metcamifen and metabolism of colchicine in corn embryos (LCMS); assay type: in vitro ADME; details: 500 ppm colchicine, corn embryos
Experimental: An experiment was completed to evaluate the uptake of metcamifen into corn embryos, whether colchicine is metabolized in the embryos, and if metcamifen increased the rate of colchicine metabolism. Corn embryos were co-treated with 500 ppm colchicine in the presence of 200 ppm, 1000 ppm or no metcamifen (control) for 24 or 48 hours and frozen. One biological replicate was represented by five embryos, and three biological replicates were used per co-treatment.
Prior to extraction, embryos were washed for 20 seconds in 80:20 (v/v) acetonitrile:H2O to remove any colchicine and metcamifen on the surface. Each replicate was extracted in 0.5 ml methanol using a fast prep maceration method. Then, samples were diluted 1 in 10 prior to analysis by Liquid Chromatography Mass Spectrometry (LCMS). Samples were analyzed alongside matrix matched standards of colchicine and metcamifen. Metabolite investigations were performed to identify any metabolites.

Question: With `CC1COc2ccccc2N1C(=O)C(Cl)Cl` (stereo not shown) [Benoxacor, benoxacor] as the molecule, how does the “Potting Rate Mean” value (isolated embryos; benoxacor 20 mg/L, 24 hours) read?
Answer: Its value is 79%.

Question: What about the “Potting Rate Mean” value (isolated embryos; benoxacor 50 mg/L, 24 hours) of the same molecule?
Answer: Its value is 90%.

Question: What about the “Potting Rate Mean” value (isolated embryos; benoxacor 50 mg/L, 48 hours) of the same molecule?
Answer: Its value is 40%.

Question: And the “Potting Rate Mean” value (isolated embryos; benoxacor 100 mg/L, 24 hours)?
Answer: The value was 79%.

Question: And the “Potting Rate Mean” value (isolated embryos; benoxacor 100 mg/L, 48 hours)?
Answer: Its value is 60%.

Question: And the “Potting Rate Mean” value (isolated embryos; benoxacor 200 mg/L, 48 hours)?
Answer: Its value is 74%.

Question: How did the “Potting Rate Mean” value (isolated embryos; dichlormid 20 mg/L, 24 hours) turn out when `C=CCN(CC=C)C(=O)C(Cl)Cl` [Dichlormid, dichlormid] was run?
Answer: The value was 89%.

Question: What about the “Transplant Rate Mean” value (isolated embryos; dichlormid 20 mg/L, 24 hours) of the same molecule?
Answer: The value was 86%.

Question: And the “Potting Rate Mean” value (isolated embryos; dichlormid 50 mg/L, 24 hours)?
Answer: Its value is 90% and 91%.

Question: What about the “Transplant Rate Mean” value (isolated embryos; dichlormid 50 mg/L, 24 hours) of the same molecule?
Answer: The value was 88% and 89%.

Question: What about the “Potting Rate Mean” value (isolated embryos; dichlormid 100 mg/L, 24 hours) of the same molecule?
Answer: Its value is 96% and 97%.

Question: And the “Transplant Rate Mean” value (isolated embryos; dichlormid 100 mg/L, 24 hours)?
Answer: Its value is 92%.

Question: What about the “Potting Rate Mean” value (isolated embryos; dichlormid 100 mg/L, 48 hours) of the same molecule?
Answer: Its value is 70%.

Question: And the “Transplant Rate Mean” value (isolated embryos; dichlormid 100 mg/L, 48 hours)?
Answer: The value was 70%.

Question: And the “Potting Rate Mean” value (isolated embryos; dichlormid 200 mg/L, 48 hours)?
Answer: The value was 86%.

Question: And the “Transplant Rate Mean” value (isolated embryos; dichlormid 200 mg/L, 48 hours)?
Answer: The value was 84%.

Question: And the “Potting Rate Mean” value (isolated embryos; dichlormid 300 mg/L, 48 hours)?
Answer: The value was 95%.

Question: What about the “Transplant Rate Mean” value (isolated embryos; dichlormid 300 mg/L, 48 hours) of the same molecule?
Answer: Its value is 93%.

Question: For `COc1cc2c(c(OC)c1OC)-c1ccc(OC)c(=O)cc1[C@@H](NC(C)=O)CC2` [colchicine], which “amount of colchicine recovered after 48 hours relative to 24 hours” value (corn embryos) is on record?
Answer: Its value is “double”.
